Data as given in patent publication US20230128137A1, “BENZO FIVE-MEMBERED CYCLIC COMPOUND” (MEDSHINE DISCOVERY INC., priority 2020, published 2023).
Read-outs that look alike come from different tables or passages of the source.

Experiments:
[1] = In vivo pharmacokinetic property evaluation in CD-1 mice (IV and PO); details: mouse, plasma; for MRT last: read-out: MRT0-last
Procedure: The in vivo pharmacokinetic properties of compound 2 were evaluated in CD-1 mice by intravenous administration and oral administration. IV (intravenous injection) refers to slow administration in jugular vein, and PO (oral administration) refers to administration by gavage. Formulations for intravenous and gavage administration were both 2.5% dimethylsulfoxide, 5% ethanol, 10% cremophor EL, 20% glucose solution (concentration of 5%), 62.5% water. PK time points in the intravenous injection group were 5 min, 15 min, 30 min, 1 h, 2 h, 4 h, 8 h, 12 h and 24 h after administration, respectively, and PK time points in the gastric administration group were 15 min, 30 min, 1 h, 2 h, 4 h, 8 h and 24 h after administration, respectively. Approximately 0.03 mL of blood was collected at each time point. Blood from each sample was transferred to a plastic microcentrifuge tube containing EDTA-K2, centrifuged at 4000 rpm for 5 min in a 4° C. centrifuge, and plasma was collected within 15 min, and the plasma samples were stored in polypropylene tubes. Before the test, samples were stored in a refrigerator at −75±15° C. The concentration of compounds in plasma samples was analyzed using the LCMS/MS method and the following pharmacokinetic parameters were calculated using WinNonlin software (Phoenix™, version 6.1): IV: C0, Cl, Vd, T1/2, AUC0-last, MRT0-last, regression points; PO: Cmax, Tmax, T1/2, AUC0-last, MRT0-last, regression points. Pharmacokinetic data were described using descriptive statistics, such as mean, standard deviation.

[2] = Liver microsome metabolic stability in vitro, beagle dog; assay type: in vitro ADME; details: beagle dog liver microsomes
Procedure: (§1) 3.2 preparation of nicotinamide adenine dinucleotide phosphate cofactor solution: an appropriate amount of NADPH powder was weighed and diluted into 10 mM magnesium chloride solution (working solution concentration: 10 unit/mL; final concentration of reaction system: 1 unit/mL);
(§2) 3.3 preparation of liver microsomes: an appropriate concentration working solution of liver microsomes (human, SD rat, CD-1 mouse, beagle dog) was prepared in 100 mM potassium phosphate buffer;
(§3) 3.4 preparation of quenching solution: cold (4° C.) acetonitrile containing 200 ng/mL tolbutamide and 200 ng/mL labetalol as internal standard (IS) was used as quenching solution;
(§4) 3.5 experimental operation:
(§5) a. empty “incubation” plates T60 and NCF60 were preheated for 10 minutes;
(§6) b. the liver microsomes were diluted to 0.56 mg/mL with 100 mM phosphate buffer;
(§7) c. 445 μL of microsomal working solution (0.56 mg/mL) was transferred to the preheated “incubation” plates T60 and NCF60, and then the“incubation” plates T60 and NCF60 were preincubated for 10 min with continuous shaking at 37° C. 54 μL of liver microsomes were transferred to a blank plate, and 6 μL of NAPDH cofactor was added to the blank plate, and then 180 μL of quenching solution was added thereto;
(§8) e. for NCF60 plate, 50 μL of buffer was added thereto and the mixture was fully mixed for three times. Timing was started; the plate was shaken at 37° C. for 60 minutes;
(§9) f. in “quenching” plate TO, 180 μL of quenching solution and 6 μL of NAPDH cofactor were addded to make sure that the plate was cooled down to prevent evaporation;
(§10) g. for T60 plates, the mixture was fully mixed for three times, and 54 μL of mixture was immediately transferred to the “quenching” plate at the 0 min time point. 44 μL of NAPDH cofactor was then added to the culture plate (T60). Timing was started; the plate was shaken at 37° C. for 60 minutes;
(§11) h. at 5, 10, 20, 30 and 60 min, 180 μL of quenching solution was added to the “quenching” plate, and the mixture was mixed for one time, and 60 μL of sample was continuously transferred from the T60 plate to the “quenching” plate at each time point;
(§12) i. for NCF60: the mixture was mixed for one time, and 60 μL of sample was transferred from the NCF60 culture dish to the “quenching” plate containing quenching solution at 60 minutes time point;
(§13) j. all sampling plates were shaked for 10 minutes, then centrifuged at 4000 rpm for 20 minutes at 4° C.;
(§14) k. 60 μL of supernatant was transferred into 180 μL of HPLC water and stirred with a plate shaker for 10 min;
(§15) 1. before LC-MS/MS analysis, each bioanalysis plate was sealed and shaked for 10 minutes.

[3] = Liver microsome metabolic stability in vitro, SD rat; assay type: in vitro ADME; details: SD rat liver microsomes
Procedure: as §1, §2, §3, §4, §5, §6, §7, §8, §9, §10, §11, §12, §13, §14, §15

Which AUC(0-t) ([1]; 1 mg/kg, IV, 1 mpk) does the source give for `CC1(C)CCC(CN2CCN(c3ccc(C(=O)NS(=O)(=O)c4cc([N+](=O)[O-])c(NCC5CCOCC5)c5[nH]cnc45)c(Oc4cnc5[nH]ccc5c4)c3)CC2)=C(c2ccc(Cl)cc2)C1` [Compound 2] here?
The AUC(0-t) was 1.8 µM·h.

What about the C0 ([1]; 1 mg/kg, IV, 1 mpk) of the same molecule?
Its C0 is 11.7 µM.

And the clearance ([1]; 1 mg/kg, IV, 1 mpk)?
The clearance was 10.2 mL/min/kg.

What about the half-life ([1]; 1 mg/kg, IV, 1 mpk) of the same molecule?
Its half-life is 3.35 h.

And the MRT last ([1]; 1 mg/kg, IV, 1 mpk)?
The MRT last was 1.21 h.

And the Vd ([1]; 1 mg/kg, IV, 1 mpk, read-out: Vdss)?
The Vd was 0.834 L/kg.

And the AUC(0-t) ([1]; 50 mg/kg, PO, 50 mpk)?
The AUC(0-t) was 12.8 µM·h.

And the Cmax ([1]; 50 mg/kg, PO, 50 mpk)?
The Cmax was 1.79 µM.

And the Tmax ([1]; 50 mg/kg, PO, 50 mpk)?
Its Tmax is 3 h.

What about the half-life ([1]; 50 mg/kg, PO, 50 mpk) of the same molecule?
The half-life was 4.1 h.

And the MRT last ([1]; 50 mg/kg, PO, 50 mpk)?
Its MRT last is 6.22 h.

What about the CLint scaled at 1 µM [2] of the same molecule?
Its CLint scaled at 1 µM is 26.8 mL/min/kg.

What about the half-life at 1 µM [2] of the same molecule?
The half-life at 1 µM was 1.24 h.

And the “Remaining (T = 60 min)” value ([2]; 60 min incubation)?
Its value is 52%.

What about the CLint scaled at 1 µM [3] of the same molecule?
The CLint scaled at 1 µM was 23.6 mL/min/kg.

And the half-life at 1 µM [3]?
Its half-life at 1 µM is 1.76 h.

And the “Remaining (T = 60 min)” value ([3]; 60 min incubation)?
Its value is 64.1%.
